Data reported in ChEMBL document CHEMBL5120848, “Tapping into the antitubercular potential of 2,5-dimethylpyrroles: A structure-activity relationship interrogation” (Eur J Med Chem, 2022).
Values after ≈ are worked out from the molar mass of the structure shown. Active and inactive are the calls of the source. The calls are words filed in the database; no cut-off is given here.

Columns and labels:
[1] = system: Mycobacterium tuberculosis; assay: Anti-tubercular activity against Mycobacterium tuberculosis H37Rv assessed as inhibition of mycobacterial growth incubated for 7 days by resazurin-dye based analysis; format: functional; conditions: 168 h, time 7 day
[2] = Cytotoxicity against mouse J774.A1 cells assessed as reduction in cell viability incubated for 24 hrs by resazurin-dye based analysis; format: toxicity
[3] = Selectivity index, ratio of IC50 for cytotoxicity against human MRC5 cells to MIC90 for anti-tubercular activity against Mycobacterium tuberculosis H37Rv; format: toxicity, cell-based; conditions: read-out: Selectivity Index
[4] = Cytotoxicity against human MRC5 cells assessed as reduction in cell viability incubated for 24 hrs by resazurin-dye based analysis; format: toxicity
[5] = Selectivity index, ratio of IC50 for cytotoxicity against mouse J774.A1 cells to MIC90 for anti-tubercular activity against Mycobacterium tuberculosis H37Rv; format: toxicity, cell-based; conditions: read-out: Selectivity Index
[6] = system: Mycobacterium tuberculosis; assay: Anti-tubercular activity against Mycobacterium tuberculosis CF16 assessed as inhibition of mycobacterial growth incubated for 7 days by resazurin-dye based analysis; format: functional; conditions: CF16, 168 h, time 7 day
[7] = system: Mycobacterium tuberculosis; assay: Anti-tubercular activity against Mycobacterium tuberculosis CF61 assessed as inhibition of mycobacterial growth incubated for 7 days by resazurin-dye based analysis; format: functional; conditions: CF61, 168 h, time 7 day
[8] = system: Mycobacterium tuberculosis; assay: Anti-tubercular activity against Mycobacterium tuberculosis CF76 assessed as inhibition of mycobacterial growth incubated for 7 days by resazurin-dye based analysis; format: functional; conditions: CF76, 168 h, time 7 day
[9] = system: Mycobacterium tuberculosis; assay: Bactericidal activity against Mycobacterium tuberculosis H37Rv assessed as log reduction of bacterial colonies at 1XMIC measured on day 12 by time-kill kinetics analysis (reference value: 7.54 log10CFU/ml); format: functional; conditions: time 12 day
[10] = system: Mycobacterium tuberculosis; assay: Anti-tubercular activity against Mycobacterium tuberculosis CF152 assessed as inhibition of mycobacterial growth incubated for 7 days by resazurin-dye based analysis; format: functional; conditions: CF152, 168 h, time 7 day
[11] = system: Mycobacterium tuberculosis; assay: Anti-tubercular activity against Mycobacterium tuberculosis CF161 assessed as inhibition of mycobacterial growth incubated for 7 days by resazurin-dye based analysis; format: functional; conditions: CF161, 168 h, time 7 day
[12] = system: Mycobacterium tuberculosis; assay: Anti-tubercular activity against Mycobacterium tuberculosis infected in mouse J774.A1 cells assessed as inhibition of intracellular bacilli growth incubated for 72 hrs; format: functional, organism-based
[13] = system: Mycobacterium tuberculosis; assay: Bacteriostatic activity against Mycobacterium tuberculosis H37Rv at 1XMIC measured for 12 days by time-kill kinetics analysis; format: functional, organism-based; conditions: time 12.0 day

SMILES | MIC90 [1] [µg/mL] | IC50 at 24 h [2] [µg/mL] | selectivity ratio [3] | IC50 at 24 h [4] [µg/mL] | selectivity ratio [5] | other results
Cc1cc(CNC2CCCCC2)c(C)n1-c1ccc(OCC(=O)N(C)C)cc1 | > 25 |  |  |  |  | 
Cc1cc(CNCc2ccccc2)c(C)n1Cc1ccc(F)cc1 | 6.96 (≈ 21.6 µM) | 15.7 (≈ 48.7 µM) | 2.32 | 16.2 (≈ 50.1 µM) | 2.26 | 
Cc1cc(CNNC(=O)c2ccncc2)c(C)n1-c1ccc(Cl)cc1 |  | 78.5 (≈ 221 µM) |  | 96.1 (≈ 271 µM) |  | 
Cc1cc(CNCC2CCCCC2)c(C)n1Cc1ccc(Cl)cc1 | 1.39 (≈ 4.03 µM) | 5.92 (≈ 17.2 µM) | 7.71 | 10.8 (≈ 31.2 µM) | 4.25 | 
Cc1ccc(-n2c(C)cc(CNCc3ccccc3)c2C)cc1 | 5.58 (≈ 18.3 µM) | 94 (≈ 309 µM) | 2.3 | 13.7 (≈ 45 µM) | 15.8 | MIC90 [6]: 7.51 µg/mL (≈ 24.7 µM); MIC90 [7]: 9.16 µg/mL (≈ 30.1 µM); MIC90 [8]: 8.18 µg/mL (≈ 26.9 µM); Activity [9]: 2.65 log10CFU/ml; MIC90 [10]: 6.35 µg/mL (≈ 20.9 µM); MIC90 [11]: 6.12 µg/mL (≈ 20.1 µM)
Cc1cc(CNC2CCC(NC(=N)N)CC2)c(C)n1-c1ccc(Cl)cc1.Cl.Cl (centres undefined) | 10.4 |  |  |  |  | 
Cc1cc(CNC2CCCCC2)c(C)n1-c1ccc(C(=O)O)cc1 | > 25 |  |  |  |  | 
CCOc1ccc(-n2c(C)cc(CNC3CCCCC3)c2C)cc1 | 5.14 (≈ 15.7 µM) | 9.17 (≈ 28.1 µM) | 3.87 | 19.9 (≈ 61 µM) | 1.78 | 
Cc1cc(CNCc2ccccc2)c(C)n1-c1nc2ccccc2s1 | 11.2 (≈ 32.1 µM) |  |  |  |  | 
Cc1cc(CNCCCCCCCCNC(=N)N)c(C)n1-c1ccc(OCC(=O)O)cc1.Cl.Cl | 13.2 |  |  |  |  | 
Cc1cc(CNCc2ccccc2)c(C)n1CC1CCCCC1 | 6.58 (≈ 21.2 µM) | 13.4 (≈ 43.3 µM) | 2.78 | 18.3 (≈ 58.8 µM) | 2.04 | 
Cc1cc(CNCC2CCCCC2)c(C)n1-c1ccccc1 | 0.3 (≈ 1.01 µM) |  |  |  |  | 
Cc1cc(CNCCCCCCCCNC(=N)N)c(C)n1-c1ccc(OCC(=O)N(C)C)cc1.Cl.Cl | 8.91 | 12.8 | 4.04 | 36 | 1.43 | 
COc1c(N2C[C@@H]3CCCN[C@@H]3C2)c(F)cc2c(=O)c(C(=O)O)cn(C3CC3)c12 [MOXIFLOXACIN] | ≤ 0.07 | 14.6 (≈ 36.3 µM) | 1430 | > 100 | 209 | MIC90 [6]: 0.14 µg/mL (≈ 0.349 µM); MIC90 [7]: 0.27 µg/mL (≈ 0.673 µM); MIC90 [8]: 0.2 µg/mL (≈ 0.498 µM); Activity [12]: Active; MIC90 [10]: 0.57 µg/mL (≈ 1.42 µM); MIC90 [11]: 0.17 µg/mL (≈ 0.423 µM)
Cc1cc(CNCC2CCCCC2)c(C)n1Cc1ccccn1 | 23 (≈ 73.9 µM) |  |  |  |  | 
CO[C@H]1/C=C/O[C@@]2(C)Oc3c(C)c(O)c4c(O)c(c(/C=N/N5CCN(C)CC5)c(O)c4c3C2=O)NC(=O)/C(C)=C\C=C\[C@H](C)[C@H](O)[C@@H](C)[C@@H](O)[C@@H](C)[C@H](OC(C)=O)[C@@H]1C [RIFAMPIN] | 0.05 (≈ 0.0608 µM) |  |  |  |  | MIC90 [6]: 0.2 µg/mL (≈ 0.243 µM); MIC90 [7]: > 25 µg/mL; MIC90 [8]: > 25 µg/mL; MIC90 [10]: > 25 µg/mL; MIC90 [11]: > 25 µg/mL

SMILES | MIC90 [1] [µg/mL] | IC50 at 24 h [2] [µg/mL] | selectivity ratio [3] | IC50 at 24 h [4] [µg/mL] | selectivity ratio [5] | other results
Cc1cc(CNCC2CCCCC2)c(C)n1-c1nc2ccccc2s1 | 0.4 (≈ 1.13 µM) | 8.47 (≈ 24 µM) | 25.8 | 10.3 (≈ 29.2 µM) | 21.2 | MIC90 [6]: 20.1 µg/mL (≈ 56.9 µM); MIC90 [7]: 23.5 µg/mL (≈ 66.5 µM); MIC90 [8]: 19.6 µg/mL (≈ 55.5 µM); Activity [12]: Active; Activity [13]: Active; MIC90 [10]: 10.9 µg/mL (≈ 30.9 µM); MIC90 [11]: 13.6 µg/mL (≈ 38.5 µM)
Cc1cc(CNCc2ccccc2)c(C)n1C1CCCC1 | 13.4 (≈ 47.6 µM) |  |  |  |  | 
Cc1cc(CNCc2ccccc2)c(C)n1-c1ccccn1 | > 25 |  |  |  |  | 
Cc1cc(CNCCCCNC(=N)N)c(C)n1-c1ccc(Cl)cc1.Cl.Cl | 14.2 |  |  |  |  | 
NCC[C@H](O)C(=O)N[C@@H]1C[C@H](N)[C@@H](O[C@H]2O[C@H](CN)[C@@H](O)[C@H](O)[C@H]2O)[C@H](O)[C@H]1O[C@H]1O[C@H](CO)[C@@H](O)[C@H](N)[C@H]1O [AMIKACIN] | 0.25 (≈ 0.427 µM) |  |  |  |  | MIC90 [6]: 0.22 µg/mL (≈ 0.376 µM); MIC90 [7]: 0.91 µg/mL (≈ 1.55 µM); MIC90 [8]: 0.25 µg/mL (≈ 0.427 µM); MIC90 [10]: 0.19 µg/mL (≈ 0.324 µM); MIC90 [11]: 0.24 µg/mL (≈ 0.41 µM)
Cc1cc(CNCC2CCCCC2)c(C)n1C1CCCC1 | 9.21 (≈ 31.9 µM) |  |  |  |  | 
Cc1cc(CNC2CCC(N)CC2)c(C)n1-c1ccc(Cl)cc1.Cl.Cl (centres undefined) | > 25 |  |  |  |  | 
Cc1cc(CNCC2CCCCC2)c(C)n1-c1ccccn1 | 16.3 (≈ 54.7 µM) |  |  |  |  | 
Cc1ccc(-n2c(C)cc(CNCC3CCCCC3)c2C)cc1 | 4.88 (≈ 15.7 µM) | 25.1 (≈ 80.7 µM) | 3.19 | 15.6 (≈ 50.2 µM) | 5.13 | 
Cc1cc(CNCc2ccccc2)c(C)n1C(C)c1ccccc1 (centres undefined) | 7.94 (≈ 24.9 µM) | 17.6 (≈ 55.1 µM) | 4.2 | 33.3 (≈ 105 µM) | 2.21 | 
Cc1cc(CNCC2CCCCC2)c(C)n1Cc1ccc(F)cc1 | 0.73 (≈ 2.22 µM) | 9.88 (≈ 30.1 µM) | 28.8 | 21 (≈ 63.9 µM) | 13.6 | MIC90 [6]: 7.69 µg/mL (≈ 23.4 µM); MIC90 [7]: 9.38 µg/mL (≈ 28.6 µM); MIC90 [8]: 18.8 µg/mL (≈ 57.2 µM); Activity [12]: Active; Activity [13]: Active; MIC90 [10]: 7.53 µg/mL (≈ 22.9 µM); MIC90 [11]: 7.31 µg/mL (≈ 22.3 µM)
NNC(=O)c1ccncc1 [ISONIAZID] | 0.11 (≈ 0.802 µM) |  |  |  |  | MIC90 [6]: > 25 µg/mL; MIC90 [7]: > 25 µg/mL; MIC90 [8]: > 25 µg/mL; Activity [12]: Active; MIC90 [10]: > 25 µg/mL; MIC90 [11]: > 25 µg/mL
Cc1cc(CNCc2ccccc2)c(C)n1Cc1ccc(Cl)cc1 | 10.6 (≈ 31.1 µM) |  |  |  |  | 
Cc1cc(CNC2CCCCC2)c(C)n1-c1ccc(OCC(=O)O)cc1 | 16.4 (≈ 45.9 µM) |  |  |  |  | 
Cc1cc(CNCC2CCCCC2)c(C)n1C1CCCCC1 | 1.74 (≈ 5.75 µM) | 12 (≈ 39.6 µM) | 15.3 | 26.7 (≈ 88.3 µM) | 6.89 | 
Cc1cc(CNCC2CCCCC2)c(C)n1C(C)c1ccccc1 (centres undefined) | 4.48 (≈ 13.8 µM) | 60.6 (≈ 187 µM) | 5.23 | 23.4 (≈ 72.2 µM) | 13.5 | MIC90 [6]: 8.7 µg/mL (≈ 26.8 µM); MIC90 [7]: 10.2 µg/mL (≈ 31.3 µM); MIC90 [8]: 9.13 µg/mL (≈ 28.1 µM); Activity [12]: Active; Activity [9]: 3.94 log10CFU/ml; MIC90 [10]: 4.32 µg/mL (≈ 13.3 µM); MIC90 [11]: 9.94 µg/mL (≈ 30.6 µM)
